Here are results for eleven compounds from patent US20250288683A1, “TETRAHYDROISOQUINOLINE HETEROBIFUNCTIONAL BCL-XL DEGRADERS” (Treeline Biosciences, Inc., priority 2022, published 2025).

In the assay the target is T1, Human BCL-XL protein (N-terminal HiBiT tagged BCL-XL in HT1080 cells) (Homo sapiens, UniProt Q07817).
T1 construct: expressed in transfected cells; host or cells: HT-1080 (ATCC CCL-121), stably transduced with lentivirus pLV-UBC-N-HiBiT-BCL-XL-PGK-puro and selected with puromycin
T1 sequence (Q07817 whole entry): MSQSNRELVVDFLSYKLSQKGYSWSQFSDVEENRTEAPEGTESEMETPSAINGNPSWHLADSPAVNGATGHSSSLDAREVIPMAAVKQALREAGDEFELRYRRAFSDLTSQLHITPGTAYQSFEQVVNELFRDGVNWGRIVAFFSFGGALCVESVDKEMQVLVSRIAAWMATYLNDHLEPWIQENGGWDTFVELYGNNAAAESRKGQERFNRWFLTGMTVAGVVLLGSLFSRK
As to the kind of experiment: HiBiT based degradation assay. Format: cell-based. The note with it: HT1080 cells expressing N-terminal HiBiT tagged BCL-XL, normalized with DMSO control. An excerpt:
HiBiT Based Degradation Assay
Human BCL-XL protein coding open reading frame fused with N-terminal HiBiT coding sequence was synthesized from Integrated DNA Technologies (IDT). Next, N-HiBiT-BCL-XL sequence was cloned into pLV-UBC-PGK-Puro, a lentivirus plasmid purchased from Vectorbuilder, to generate pLV-UBC-N-HiBiT-BCL-XL-PGK-puro. Lentiviral particles were generated from Lenti-X™ 293T cells (Clontech) by co-transfection of pLV-UBC-N-HiBiT-BCL-XL-PGK-puro plasmids and lentiviral packaging plasmid mix (Cellecta). HT-1080 [HT1080](ATCC CCL-121) cells were infected with the lentivirus, and HT1080 cells stably integrated with the lentiviral vectors were established by incubation with 1 μg/mL puromycin (Thermofisher).
HT1080 cells expressing N-terminal HiBiT tagged BCL-XL were dispensed into a 384-well plate pre-spotted with compounds at varying concentrations. Three thousand cells were seeded into each well in 40 μL of RPMI 1640 media. […] After incubation, luminescence was read on a PHERAstar FSX Plate Reader (BMG). BCL-XL degradation at each indicated concentration was normalized with the DMSO control. The BCL-XL degradation curves were plotted using a four-parameter logistic model. For compounds displaying hook effects, the curve fitting was performed using the bottom point of the hook curves (i.e., the point of Ymin) as the bottom plateau to calculate EC50.

In the case of `Cc1ncsc1-c1ccc([C@H](C)NC(=O)[C@@H]2C[C@@H](O)CN2C(=O)[C@@H](NC(=O)CCCCCCCCCCCCCn2nc(C)c(-c3ccc(N4CCc5cccc(C(=O)Nc6nc7ccccc7s6)c5C4)nc3C(=O)O)c2C)C(C)(C)C)cc1` [Compound 104a, 6-[8-(1,3-benzothiazol-2-ylcarbamoyl)-3,4-dihydro-1H-isoquinolin-2-yl]-3-[1-[14-[[(1S)-1-[(2S,4R)-4-hydroxy-2-[[(1S)-1-[4-(4-methylthiazol-5-yl)phenyl]ethyl]carbamoyl]pyrrolidine-1-carbonyl]-2,2-dimethyl-propyl]amino]-14-oxo-tetradecyl]-3,5-dimethyl-pyrazol-4-yl]pyridine-2-carboxylic acid], the “Ymin (6 h)” value is listed as “B (50% ≤ Ymin < 70%)”.

With `Cc1ncsc1-c1ccc([C@H](C)NC(=O)[C@@H]2C[C@@H](O)CN2C(=O)[C@@H](NC(=O)CCCCCOc2cccc(-c3ccc(N4CCc5cccc(C(=O)Nc6nc7ccccc7s6)c5C4)nc3C(=O)O)c2C)C(C)(C)C)cc1` [Compound 105a, 6-(8-(Benzo[d]thiazol-2-ylcarbamoyl)-3,4-dihydroisoquinolin-2(1H)-yl)-3-(3-((6-(((S)-1-((2S,4R)-4-hydroxy-2-(((S)-1-(4-(4-methylthiazol-5-yl)phenyl)ethyl)carbamoyl)pyrrolidin-1-yl)-3,3-dimethyl-1-oxobutan-2-yl)amino)-6-oxohexyl)oxy)-2-methylphenyl)picolinic acid], the “Ymin (6 h)” value is recorded as “A (Ymin < 50%)” and the “Ymin (24 h)” value was “A (Ymin < 50%)”.

Turning to `Cc1ncsc1-c1ccc([C@H](C)NC(=O)[C@@H]2C[C@@H](O)CN2C(=O)[C@@H](NC(=O)CCCCCCOc2cccc(-c3ccc(N4CCc5cccc(C(=O)Nc6nc7ccccc7s6)c5C4)nc3C(=O)O)c2C)C(C)(C)C)cc1` [Compound 106a, 6-(8-(benzo[d]thiazol-2-ylcarbamoyl)-3,4-dihydroisoquinolin-2(1H)-yl)-3-(3-((7-(((S)-1-((2S,4R)-4-hydroxy-2-(((S)-1-(4-(4-methylthiazol-5-yl)phenyl)ethyl)carbamoyl)pyrrolidin-1-yl)-3,3-dimethyl-1-oxobutan-2-yl)amino)-7-oxoheptyl)oxy)-2-methylphenyl)picolinic acid], the “Ymin (6 h)” value is reported as “A (Ymin < 50%)” and the “Ymin (24 h)” value is given as “A (Ymin < 50%)”. For `Cc1ncsc1-c1ccc([C@H](C)NC(=O)[C@@H]2C[C@@H](O)CN2C(=O)[C@@H](NC(=O)CCCCCCCOc2cccc(-c3ccc(N4CCc5cccc(C(=O)Nc6nc7ccccc7s6)c5C4)nc3C(=O)O)c2C)C(C)(C)C)cc1` [Compound 107a, 6-[8-(1,3-benzothiazol-2-ylcarbamoyl)-3,4-dihydro-1H-isoquinolin-2-yl]-3-[3-[8-[[(1S)-1-[(2S,4R)-4-hydroxy-2-[[(1S)-1-[4-(4-methylthiazol-5-yl)phenyl]ethyl]carbamoyl]pyrrolidine-1-carbonyl]-2,2-dimethyl-propyl]amino]-8-oxo-octoxy]-2-methyl-phenyl]pyridine-2-carboxylic acid], the “Ymin (6 h)” value was “B (50% ≤ Ymin < 70%)”. `Cc1ncsc1-c1ccc([C@H](C)NC(=O)[C@@H]2C[C@@H](O)CN2C(=O)[C@@H](NC(=O)CCCCOc2cccc(-c3ccc(N4CCc5cccc(C(=O)Nc6nc7ccccc7s6)c5C4)nc3C(=O)O)c2C)C(C)(C)C)cc1` [Compound 108a, 6-[8-(1,3-benzothiazol-2-ylcarbamoyl)-3,4-dihydro-1H-isoquinolin-2-yl]-3-[3-[5-[[(1S)-1-[(2S,4R)-4-hydroxy-2-[[(1S)-1-[4-(4-methylthiazol-5-yl)phenyl]ethyl]carbamoyl]pyrrolidine-1-carbonyl]-2,2-dimethyl-propyl]amino]-5-oxo-pentoxy]-2-methyl-phenyl]pyridine-2-carboxylic acid]: the “Ymin (6 h)” value was “A (Ymin < 50%)” and the “Ymin (24 h)” value was “A (Ymin < 50%)”. As to `Cc1ncsc1-c1ccc([C@H](C)NC(=O)[C@@H]2C[C@@H](O)CN2C(=O)[C@@H](NC(=O)CCCCCCCCCNC(=O)c2nc(N3CCc4cccc(C(=O)Nc5nc6ccccc6s5)c4C3)ccc2-c2cnn(Cc3ccccc3)c2C)C(C)(C)C)cc1` [Compound 110a, N-(benzo[d]thiazol-2-yl)-2-(5-(1-benzyl-5-methyl-1H-pyrazol-4-yl)-6-((10-(((S)-1-((2S,4R)-4-hydroxy-2-(((S)-1-(4-(4-methylthiazol-5-yl)phenyl)ethyl)carbamoyl)pyrrolidin-1-yl)-3,3-dimethyl-1-oxobutan-2-yl)amino)-10-oxodecyl)carbamoyl)pyridin-2-yl)-1,2,3,4-tetrahydroisoquinoline-8-carboxamide], the “Ymin (6 h)” value is “A (Ymin < 50%)”. On the same count and under the same terms, the value for `Cc1ncsc1-c1ccc([C@H](C)NC(=O)[C@@H]2C[C@@H](O)CN2C(=O)[C@@H](NC(=O)CCCCCCCCCn2nc(C)c(-c3ccc(N4CCc5cccc(C(=O)Nc6nc7ccccc7s6)c5C4)nc3C(=O)O)c2C)C(C)(C)C)cc1` [Compound 111a, 6-[8-(1,3-benzothiazol-2-ylcarbamoyl)-3,4-dihydro-1H-isoquinolin-2-yl]-3-[1-[10-[[(1S)-1-[(2S,4R)-4-hydroxy-2-[[(1S)-1-[4-(4-methylthiazol-5-yl)phenyl]ethyl]carbamoyl]pyrrolidine-1-carbonyl]-2,2-dimethyl-propyl]amino]-10-oxo-decyl]-3,5-dimethyl-pyrazol-4-yl]pyridine-2-carboxylic acid] was “B (50% ≤ Ymin < 70%)”. Consider `Cc1ncsc1-c1ccc([C@H](C)NC(=O)[C@@H]2C[C@@H](O)CN2C(=O)[C@@H](NC(=O)CCc2ccc(Oc3cccc(-c4ccc(N5CCc6cccc(C(=O)Nc7nc8ccccc8s7)c6C5)nc4C(=O)O)c3C)cc2)C(C)(C)C)cc1` [Compound 112a, 6-[8-(1,3-benzothiazol-2-ylcarbamoyl)-3,4-dihydro-1H-isoquinolin-2-yl]-3-[3-[4-[3-[[(1S)-1-[(2S, 4R)-4-hydroxy-2-[[(1S)-1-[4-(4-methylthiazol-5-yl)phenyl]ethyl]carbamoyl]pyrrolidine-1-carbonyl]-2,2-dimethyl-propyl]amino]-3-oxo-propyl]phenoxy]-2-methyl-phenyl]pyridine-2-carboxylic acid], for which the “Ymin (6 h)” value is “B (50% ≤ Ymin < 70%)” and the “Ymin (24 h)” value was “B (50% ≤ Ymin < 70%)”. On to `Cc1ncsc1-c1ccc([C@H](C)NC(=O)[C@@H]2C[C@@H](O)CN2C(=O)[C@@H](NC(=O)Cc2ccc(Oc3cccc(-c4ccc(N5CCc6cccc(C(=O)Nc7nc8ccccc8s7)c6C5)nc4C(=O)O)c3C)cc2)C(C)(C)C)cc1` [Compound 113a, 6-[8-(1,3-benzothiazol-2-ylcarbamoyl)-3,4-dihydro-1H-isoquinolin-2-yl]-3-[3-[4-[2-[[(1S)-1-[(2S,4R)-4-hydroxy-2-[[(1S)-1-[4-(4-methylthiazol-5-yl)phenyl]ethyl]carbamoyl]pyrrolidine-1-carbonyl]-2,2-dimethyl-propyl]amino]-2-oxo-ethyl]phenoxy]-2-methyl-phenyl]pyridine-2-carboxylic acid], for which the “Ymin (6 h)” value was “A (Ymin < 50%)” and the “Ymin (24 h)” value was “A (Ymin < 50%)”. Consider `Cc1ncsc1-c1ccc([C@H](C)NC(=O)[C@@H]2C[C@@H](O)CN2C(=O)[C@@H](NC(=O)CCc2ccc(COc3cccc(-c4ccc(N5CCc6cccc(C(=O)Nc7nc8ccccc8s7)c6C5)nc4C(=O)O)c3C)cc2)C(C)(C)C)cc1` [Compound 114a, 6-(8-(benzo[d]thiazol-2-ylcarbamoyl)-3,4-dihydroisoquinolin-2(1H)-yl)-3-(3-((4-(3-(((S)-1-((2S,4R)-4-hydroxy-2-(((S)-1-(4-(4-methylthiazol-5-yl)phenyl)ethyl)carbamoyl)pyrrolidin-1-yl)-3,3-dimethyl-1-oxobutan-2-yl)amino)-3-oxopropyl)benzyl)oxy)-2-methylphenyl)picolinic acid], for which the “Ymin (6 h)” value is on record as “B (50% ≤ Ymin < 70%)” and the “Ymin (24 h)” value is listed as “A (Ymin < 50%)”.

As for `Cc1ncsc1-c1ccc([C@H](C)NC(=O)[C@@H]2C[C@@H](O)CN2C(=O)[C@@H](NC(=O)CCCc2ccc(Oc3cccc(-c4ccc(N5CCc6cccc(C(=O)Nc7nc8ccccc8s7)c6C5)nc4C(=O)O)c3C)cc2)C(C)(C)C)cc1` [Compound 115a, 6-(8-(benzo[d]thiazol-2-ylcarbamoyl)-3,4-dihydroisoquinolin-2 (1H)-yl)-3-(3-(4-(4-(((S)-1-((2S,4R)-4-hydroxy-2-(((S)-1-(4-(4-methylthiazol-5-yl)phenyl)ethyl)carbamoyl)pyrrolidin-1-yl)-3,3-dimethyl-1-oxobutan-2-yl)amino)-4-oxobutyl)phenoxy)-2-methylphenyl)picolinic acid], the “Ymin (6 h)” value is “A (Ymin < 50%)” and the “Ymin (24 h)” value is given as “A (Ymin < 50%)”.
